Converted amounts (≈) assume the structure as drawn. The source made the active and inactive calls. The calls are words filed in the database; no cut-off is given here.
How the values were obtained:
[1] = test system: Candida albicans; experiment: Antifungal activity against Candida albicans ATCC 24433 by broth dilution method; format: functional
[2] = test system: Nakaseomyces glabratus; experiment: Antifungal activity against Candida glabrata ATCC 90030 by broth dilution method; format: functional
[3] = test system: Pichia kudriavzevii; experiment: Antifungal activity against Candida krusei ATCC 6258 at 8 ug/ml by broth dilution method; format: functional, organism-based
[4] = test system: Candida tropicalis; experiment: Antifungal activity against Candida tropicalis ATCC 750 at 8 ug/ml by broth dilution method; format: functional, organism-based
[5] = test system: Cryptococcus neoformans; experiment: Antifungal activity against Cryptococcus neoformans ATCC 34664 at 8 ug/ml by broth dilution method; format: functional, organism-based
[6] = test system: Aspergillus niger; experiment: Antifungal activity against Aspergillus niger ATCC 16404 at 8 ug/ml by broth dilution method; format: functional, organism-based
[7] = test system: Aspergillus fumigatus; experiment: Antifungal activity against Aspergillus fumigatus ATCC 46645 at 8 ug/ml by broth dilution method; format: functional, organism-based
[8] = test system: Fusarium proliferatum; experiment: Antifungal activity against Fusarium proliferatum ATCC 10052 at 8 ug/ml by broth dilution method; format: functional, organism-based
[9] = test system: Candida albicans; experiment: Antifungal activity against Candida albicans ATCC 24433 at 4 ug/ml by broth dilution method; format: functional, organism-based
[10] = test system: Nakaseomyces glabratus; experiment: Antifungal activity against Candida glabrata ATCC 90030 at 4 ug/ml by broth dilution method; format: functional, organism-based
[11] = test system: Pichia kudriavzevii; experiment: Antifungal activity against Candida krusei ATCC 6258 at 4 ug/ml by broth dilution method; format: functional, organism-based
[12] = test system: Candida tropicalis; experiment: Antifungal activity against Candida tropicalis ATCC 750 at 4 ug/ml by broth dilution method; format: functional, organism-based
[13] = test system: Cryptococcus neoformans; experiment: Antifungal activity against Cryptococcus neoformans ATCC 34664 at 4 ug/ml by broth dilution method; format: functional, organism-based
[14] = test system: Aspergillus niger; experiment: Antifungal activity against Aspergillus niger ATCC 16404 at 4 ug/ml by broth dilution method; format: functional, organism-based
[15] = test system: Aspergillus fumigatus; experiment: Antifungal activity against Aspergillus fumigatus ATCC 46645 at 4 ug/ml by broth dilution method; format: functional, organism-based
[16] = test system: Fusarium proliferatum; experiment: Antifungal activity against Fusarium proliferatum ATCC 10052 at 4 ug/ml by broth dilution method; format: functional, organism-based
[17] = test system: Pichia kudriavzevii; experiment: Antifungal activity against Candida krusei ATCC 6258 at 16 ug/ml by broth dilution method; format: functional, organism-based
[18] = test system: Candida tropicalis; experiment: Antifungal activity against Candida tropicalis ATCC 750 at 16 ug/ml by broth dilution method; format: functional, organism-based
[19] = test system: Cryptococcus neoformans; experiment: Antifungal activity against Cryptococcus neoformans ATCC 34664 at 16 ug/ml by broth dilution method; format: functional, organism-based
[20] = test system: Aspergillus niger; experiment: Antifungal activity against Aspergillus niger ATCC 16404 at 16 ug/ml by broth dilution method; format: functional, organism-based
[21] = test system: Aspergillus fumigatus; experiment: Antifungal activity against Aspergillus fumigatus ATCC 46645 at 16 ug/ml by broth dilution method; format: functional, organism-based
[22] = test system: Fusarium proliferatum; experiment: Antifungal activity against Fusarium proliferatum ATCC 10052 at 16 ug/ml by broth dilution method; format: functional, organism-based
[23] = test system: Candida tropicalis; experiment: Antifungal activity against Candida tropicalis ATCC 750 by broth dilution method; format: functional
[24] = test system: Pichia kudriavzevii; experiment: Antifungal activity against Candida krusei ATCC 6258 at 128 ug/ml by broth dilution method; format: functional, organism-based
[25] = test system: Cryptococcus neoformans; experiment: Antifungal activity against Cryptococcus neoformans ATCC 34664 by broth dilution method; format: functional
[26] = test system: Aspergillus niger; experiment: Antifungal activity against Aspergillus niger ATCC 16404 at 128 ug/ml by broth dilution method; format: functional, organism-based
[27] = test system: Aspergillus fumigatus; experiment: Antifungal activity against Aspergillus fumigatus ATCC 46645 at 128 ug/ml by broth dilution method; format: functional, organism-based
[28] = test system: Fusarium proliferatum; experiment: Antifungal activity against Fusarium proliferatum ATCC 10052 at 128 ug/ml by broth dilution method; format: functional, organism-based
[29] = test system: Candida albicans; experiment: Antifungal activity against Candida albicans ATCC 24433 at 8 ug/ml by broth dilution method; format: functional, organism-based
[30] = test system: Nakaseomyces glabratus; experiment: Antifungal activity against Candida glabrata ATCC 90030 at 8 ug/ml by broth dilution method; format: functional, organism-based
[31] = test system: Candida tropicalis; experiment: Antifungal activity against Candida tropicalis ATCC 750 at 128 ug/ml by broth dilution method; format: functional, organism-based

Compound	MIC50 [1]	MIC50 [2]	MIC50 [23]	Activity [3]	Activity [5]	Activity [6]	Activity [7]	Activity [8]	Activity [9]	Activity [10]	Activity [11]	Activity [12]	Activity [13]	Activity [14]	Activity [15]	Activity [16]	further results
COc1ccc(/C=C2\N=C(c3ccccc3)OC2=O)cc1OCC(O)(Cn1cncn1)c1ccc(F)cc1F (racemic)									inactive	inactive	inactive	inactive	inactive	inactive	inactive	inactive	
CC1(O)OC(=O)C(c2ccc(OCC(O)(Cn3cncn3)c3ccc(F)cc3F)cc2)=C1c1ccc(F)cc1F (racemic)	2 µg/mL (≈ 3.6 µM)	2 µg/mL (≈ 3.6 µM)	8 µg/mL (≈ 14.4 µM)														Activity [17]: inactive; Activity [19]: inactive; Activity [20]: inactive; Activity [21]: inactive; Activity [22]: inactive
O=C1O/C(=C\c2ccc(OCC(O)(Cn3cncn3)c3ccc(F)cc3F)cc2)C(c2ccc(F)cc2F)=C1c1ccc(Cl)c(Cl)c1 (racemic)									inactive	inactive	inactive	inactive	inactive	inactive	inactive	inactive	
O=C1OCC(c2ccc(F)cc2F)=C1c1ccc(Cl)cc1				inactive	inactive	inactive	inactive	inactive									Activity [29]: inactive; Activity [30]: inactive
O=C1OCC(c2ccc(F)cc2F)=C1c1ccc(Cl)c(Cl)c1									inactive	inactive	inactive	inactive	inactive	inactive	inactive	inactive	

Continued, in another order:

MIC50 [1]	MIC50 [2]	MIC50 [23]	Compound	Activity [3]	Activity [5]	Activity [6]	Activity [7]	Activity [8]	Activity [9]	Activity [10]	Activity [11]	Activity [12]	Activity [13]	Activity [14]	Activity [15]	Activity [16]	further results
1 µg/mL (≈ 1.8 µM)	1 µg/mL (≈ 1.8 µM)		COc1cc(C2=C(c3ccc(F)cc3F)COC2=O)ccc1OCC(O)(Cn1cncn1)c1ccc(F)cc1F (racemic)	inactive	inactive	inactive	inactive	inactive									Activity [4]: inactive
1 µg/mL (≈ 1.98 µM)	8 µg/mL (≈ 15.9 µM)		COc1cc(/C=C2\SC(=S)NC2=O)ccc1OCC(O)(Cn1cncn1)c1ccc(F)cc1F (racemic)														Activity [17]: inactive; Activity [18]: inactive; Activity [19]: inactive; Activity [20]: inactive; Activity [21]: inactive; Activity [22]: inactive
1 µg/mL (≈ 2.38 µM)	1 µg/mL (≈ 2.38 µM)	64 µg/mL (≈ 153 µM)	COc1cc(C=O)cc(OC)c1OCC(O)(Cn1cncn1)c1ccc(F)cc1F (racemic)														Activity [24]: inactive; MIC50 [25]: 8 µg/mL (≈ 19.1 µM); Activity [26]: inactive; Activity [27]: inactive; Activity [28]: inactive
2 µg/mL (≈ 5.14 µM)	2 µg/mL (≈ 5.14 µM)		COc1ccc(C=O)cc1OCC(O)(Cn1cncn1)c1ccc(F)cc1F (racemic)														Activity [24]: inactive; Activity [31]: inactive; MIC50 [25]: 16 µg/mL (≈ 41.1 µM); Activity [26]: inactive; Activity [27]: inactive; Activity [28]: inactive
0.5 µg/mL (≈ 1.01 µM)	0.5 µg/mL (≈ 1.01 µM)	2 µg/mL (≈ 4.04 µM)	O=C1OCC(c2cccs2)=C1c1ccc(OCC(O)(Cn2cncn2)c2ccc(F)cc2F)cc1 (racemic)	inactive	inactive	inactive	inactive	inactive									

— ChEMBL document CHEMBL1817568, “Novel hybrids of fluconazole and furanones: design, synthesis and antifungal activity” (2011)
